Experimental data reported in ChEMBL document CHEMBL1201862, “PubChem BioAssay data set” (2004).
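Compound exposure: 48 hours, 5 concentrations, 96-well plates. Here, GI50 denotes the concentration required for 50% inhibition of growth.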 The source made the active and inactive calls. Rule as the data show it: active = GI50 up to about 1.1 µM and inactive = higher.

Legend:
Experiment in all cases: DTP human tumour cell line panel, 48 h
DMS-114 = system: DMS-114
EKVX = system: EKVX
HL-60 = system: HL-60
HOP-18 = system: HOP-18
IGROV-1 = system: IGROV-1
K562 = system: K562
KM-20L2 = system: KM-20L2
LOX IMVI = system: LOX IMVI
M19-MEL = system: M19-MEL
NCI-H522 = system: NCI-H522
SF-539 = system: SF-539
SNB-78 = system: SNB-78
XF498 = system: XF498
DU-145 = system: DU-145
Hs-578T = system: Hs-578T
MDA-MB-231 = system: MDA-MB-231
MDA-N = system: MDA-N
NCI/ADR-RES = system: NCI/ADR-RES
T47D = system: T47D
DMS-273 = system: DMS-273

SMILES	GI50 (DMS-114)	GI50 (EKVX)	GI50 (HL-60)	GI50 (HOP-18)	GI50 (IGROV-1)	GI50 (K562)	GI50 (KM-20L2)	GI50 (LOX IMVI)	GI50 (M19-MEL)	GI50 (NCI-H522)	GI50 (SF-539)	GI50 (SNB-78)	GI50 (XF498)	GI50 (DU-145)	GI50 (Hs-578T)	GI50 (MDA-MB-231)	GI50 (MDA-N)	GI50 (NCI/ADR-RES)	GI50 (T47D)	GI50 (DMS-273)
CC1=NC(C(=O)O)Cc2c1[nH]c1ccccc21 (centres undefined)	> 100 µM (inactive)	> 100 µM (inactive)	> 100 µM (inactive)	> 100 µM (inactive)	> 100 µM (inactive)	> 100 µM (inactive)	> 100 µM (inactive)	> 100 µM (inactive)	> 100 µM (inactive)	> 100 µM (inactive)	> 100 µM (inactive)	> 100 µM (inactive)	> 100 µM (inactive)							
COc1ccc([C@H]2C=[N+]([O-])O[C@H](OC3CCCC3)[C@@H]2OC(C)=O)cc1OC		22.3 µM (inactive)	18.5 µM (inactive)		18.3 µM (inactive)	39.3 µM (inactive)		15.4 µM (inactive)		5.66 µM (inactive)	16.4 µM (inactive)			29.3 µM (inactive)	29.9 µM (inactive)	32.7 µM (inactive)	37.8 µM (inactive)	31.8 µM (inactive)	16.1 µM (inactive)	
CCOC(=O)c1csc(NC(=O)CCCC#N)n1			> 100 µM (inactive)			> 100 µM (inactive)		> 100 µM (inactive)			> 100 µM (inactive)			> 100 µM (inactive)	> 100 µM (inactive)	> 100 µM (inactive)	> 100 µM (inactive)	> 100 µM (inactive)	> 100 µM (inactive)	
O=C1CN(c2ccccc2)C(=O)C1C(=O)Nc1ccc(Cl)c(Cl)c1 (centres undefined)	2.76 µM (inactive)		0.667 µM (active)		2.33 µM (inactive)	0.604 µM (active)	4.41 µM (inactive)		1.77 µM (inactive)	2.05 µM (inactive)	3.85 µM (inactive)									3.1 µM (inactive)
CC1(C)C2CCC3(OCCO3)C1C(O)C2 (centres undefined)		> 100 µM (inactive)	> 100 µM (inactive)	> 100 µM (inactive)	> 100 µM (inactive)	> 100 µM (inactive)	> 100 µM (inactive)	> 100 µM (inactive)	> 100 µM (inactive)	> 100 µM (inactive)	> 100 µM (inactive)	> 100 µM (inactive)	> 100 µM (inactive)							> 100 µM (inactive)
Cc1ccc([N+](=O)[O-])cc1/N=N/C(=O)NNc1cc([N+](=O)[O-])ccc1C			48.2 µM (inactive)		> 10 µM (inactive)	19.7 µM (inactive)				15.8 µM (inactive)				35.3 µM (inactive)	26.4 µM (inactive)	15.5 µM (inactive)	26.6 µM (inactive)	27.9 µM (inactive)	31.3 µM (inactive)	
O=C(NNC(=S)NCc1ccccc1)C12CC3CC(CC(C3)C1)C2			22.4 µM (inactive)		> 100 µM (inactive)	55.5 µM (inactive)		35.4 µM (inactive)		> 100 µM (inactive)	> 100 µM (inactive)			85.9 µM (inactive)	> 100 µM (inactive)	> 100 µM (inactive)	67.9 µM (inactive)	89.1 µM (inactive)	49.2 µM (inactive)	
COc1cc2c(cc1OC)C(Cl)C(c1cc(OC)c(OC)c(OC)c1)=C2Cl (centres undefined)	10.8 µM (inactive)	19.1 µM (inactive)	13.6 µM (inactive)	14.7 µM (inactive)	24 µM (inactive)	12.4 µM (inactive)	17.9 µM (inactive)	13.1 µM (inactive)	14.8 µM (inactive)	6.01 µM (inactive)	13.8 µM (inactive)	12.2 µM (inactive)								16.5 µM (inactive)
CN(C)CCSc1nccc(-c2ccc(-c3ccnc(SCCN(C)C)n3)s2)n1	11.9 µM (inactive)	18.2 µM (inactive)	2.37 µM (inactive)	27.2 µM (inactive)	12.6 µM (inactive)	6.08 µM (inactive)	7.36 µM (inactive)	3.42 µM (inactive)	9.42 µM (inactive)	15.9 µM (inactive)	6.87 µM (inactive)	13 µM (inactive)	15.6 µM (inactive)					4.91 µM (inactive)		8.3 µM (inactive)
C1CCC2(CC1)O[C@@H]1[C@@H](O2)[C@@H](O[C@H]2O[C@@H]3COC4(CCCCC4)O[C@H]3[C@@H]3OC4(CCCCC4)O[C@@H]23)O[C@@H]2COC3(CCCCC3)O[C@@H]12		> 100 µM (inactive)	11.4 µM (inactive)		> 100 µM (inactive)	> 100 µM (inactive)		> 100 µM (inactive)		> 100 µM (inactive)	> 100 µM (inactive)			> 100 µM (inactive)	> 100 µM (inactive)	> 100 µM (inactive)	> 100 µM (inactive)	> 100 µM (inactive)	> 100 µM (inactive)	
c1ccc(/N=C2/SC3=Nc4cccc5cccc(c45)N3/C2=N/c2ccccc2)cc1			> 100 µM (inactive)		> 100 µM (inactive)	> 100 µM (inactive)				> 100 µM (inactive)				> 100 µM (inactive)	> 100 µM (inactive)	> 100 µM (inactive)	> 100 µM (inactive)	> 100 µM (inactive)	> 100 µM (inactive)	
Cc1cc2c(C(C)C)c(O)c(O)c(/C=N/c3ccccc3)c2c(O)c1-c1c(C)cc2c(C(C)C)c(O)c(O)c(/C=N/c3ccccc3)c2c1O	> 100 µM (inactive)	> 100 µM (inactive)	> 100 µM (inactive)		> 100 µM (inactive)	> 100 µM (inactive)	> 100 µM (inactive)	> 100 µM (inactive)	> 100 µM (inactive)	> 100 µM (inactive)	> 100 µM (inactive)		> 100 µM (inactive)							> 100 µM (inactive)
CSC1NC(c2ccccc2)=C(C#N)C(=O)N1C1OCC(OC(C)=O)C(OC(C)=O)C1OC(C)=O (centres undefined)		> 100 µM (inactive)			> 100 µM (inactive)	> 100 µM (inactive)		> 100 µM (inactive)		> 100 µM (inactive)	> 100 µM (inactive)			> 100 µM (inactive)	> 100 µM (inactive)	> 100 µM (inactive)	> 100 µM (inactive)	> 100 µM (inactive)		
COc1ccc2c(C)cc(N/N=C/c3sccc3C)nc2c1		> 10 µM (inactive)	46.8 µM (inactive)		5.82 µM (inactive)			7.59 µM (inactive)		10.2 µM (inactive)	14.3 µM (inactive)			6.68 µM (inactive)	12.5 µM (inactive)	1.43 µM (inactive)	14.3 µM (inactive)	10 µM (inactive)	7.76 µM (inactive)	
COC(=O)c1cccc(C(=O)OC)c1			> 100 µM (inactive)	> 100 µM (inactive)				> 100 µM (inactive)		> 100 µM (inactive)		> 100 µM (inactive)	> 100 µM (inactive)							> 100 µM (inactive)
CCOC(=O)NC(=O)c1cn(CCSCCOC(=O)NCCCCCCNC(=O)OCCSCCn2cc(C(=O)NC(=O)OCC)c(=O)[nH]c2=O)c(=O)[nH]c1=O	> 100 µM (inactive)	> 100 µM (inactive)	> 100 µM (inactive)	> 100 µM (inactive)	> 100 µM (inactive)	> 100 µM (inactive)	> 100 µM (inactive)	> 100 µM (inactive)	> 100 µM (inactive)		> 100 µM (inactive)	> 100 µM (inactive)								> 100 µM (inactive)
NC1(C(=O)O)CCc2ccc(N(CCCl)CCCl)cc2C1 (centres undefined)	45.9 µM (inactive)	> 100 µM (inactive)	9.82 µM (inactive)	> 100 µM (inactive)	> 100 µM (inactive)	> 100 µM (inactive)	> 100 µM (inactive)	39.7 µM (inactive)	85.5 µM (inactive)	26.7 µM (inactive)	34.5 µM (inactive)		43.1 µM (inactive)					> 100 µM (inactive)		38.8 µM (inactive)
